Laboratory results taken from patent publication US10526309B2, “Pan-TAM inhibitors and Mer/Axl dual inhibitors” (The University of North Carolina at Chapel Hill, priority 2015, dated 2020).

Assays:
Assay type in all cases: biochemical
Mer = biological target: T1, Mer (Homo sapiens, UniProt Q12866); experiment: Mer kinase inhibition IC50; details: Example 6; read-out: MerTK IC50
T1 sequence (Q12866 21-999): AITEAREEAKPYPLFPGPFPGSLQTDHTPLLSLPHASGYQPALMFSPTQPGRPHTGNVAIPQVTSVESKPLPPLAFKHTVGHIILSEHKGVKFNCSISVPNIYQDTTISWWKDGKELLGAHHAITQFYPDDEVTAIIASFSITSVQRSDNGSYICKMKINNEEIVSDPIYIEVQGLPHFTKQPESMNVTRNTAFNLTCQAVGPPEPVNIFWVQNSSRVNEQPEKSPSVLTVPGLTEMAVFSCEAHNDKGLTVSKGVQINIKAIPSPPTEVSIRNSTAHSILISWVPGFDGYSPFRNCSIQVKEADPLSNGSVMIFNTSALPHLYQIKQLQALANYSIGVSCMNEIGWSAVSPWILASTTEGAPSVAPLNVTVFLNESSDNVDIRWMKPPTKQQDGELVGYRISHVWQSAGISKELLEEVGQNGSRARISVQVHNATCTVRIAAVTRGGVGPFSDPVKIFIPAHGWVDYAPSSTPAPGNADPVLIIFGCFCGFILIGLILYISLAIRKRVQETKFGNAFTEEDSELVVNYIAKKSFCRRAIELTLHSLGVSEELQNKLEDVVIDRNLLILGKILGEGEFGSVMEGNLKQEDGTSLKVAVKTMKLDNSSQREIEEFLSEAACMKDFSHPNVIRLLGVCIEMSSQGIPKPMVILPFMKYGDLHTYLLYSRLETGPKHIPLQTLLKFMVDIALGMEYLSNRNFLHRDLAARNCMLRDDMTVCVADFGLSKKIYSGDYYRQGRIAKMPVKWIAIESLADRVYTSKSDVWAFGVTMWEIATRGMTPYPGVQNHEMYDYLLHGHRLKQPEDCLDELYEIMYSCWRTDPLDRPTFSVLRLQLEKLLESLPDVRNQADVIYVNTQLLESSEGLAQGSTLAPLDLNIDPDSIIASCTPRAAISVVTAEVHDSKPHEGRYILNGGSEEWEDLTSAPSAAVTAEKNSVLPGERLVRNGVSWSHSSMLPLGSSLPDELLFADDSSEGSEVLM

Axl = biological target: T2, Axl (Homo sapiens, UniProt P30530); experiment: Axl kinase inhibition IC50; details: Example 6
T2 sequence (P30530 26-894): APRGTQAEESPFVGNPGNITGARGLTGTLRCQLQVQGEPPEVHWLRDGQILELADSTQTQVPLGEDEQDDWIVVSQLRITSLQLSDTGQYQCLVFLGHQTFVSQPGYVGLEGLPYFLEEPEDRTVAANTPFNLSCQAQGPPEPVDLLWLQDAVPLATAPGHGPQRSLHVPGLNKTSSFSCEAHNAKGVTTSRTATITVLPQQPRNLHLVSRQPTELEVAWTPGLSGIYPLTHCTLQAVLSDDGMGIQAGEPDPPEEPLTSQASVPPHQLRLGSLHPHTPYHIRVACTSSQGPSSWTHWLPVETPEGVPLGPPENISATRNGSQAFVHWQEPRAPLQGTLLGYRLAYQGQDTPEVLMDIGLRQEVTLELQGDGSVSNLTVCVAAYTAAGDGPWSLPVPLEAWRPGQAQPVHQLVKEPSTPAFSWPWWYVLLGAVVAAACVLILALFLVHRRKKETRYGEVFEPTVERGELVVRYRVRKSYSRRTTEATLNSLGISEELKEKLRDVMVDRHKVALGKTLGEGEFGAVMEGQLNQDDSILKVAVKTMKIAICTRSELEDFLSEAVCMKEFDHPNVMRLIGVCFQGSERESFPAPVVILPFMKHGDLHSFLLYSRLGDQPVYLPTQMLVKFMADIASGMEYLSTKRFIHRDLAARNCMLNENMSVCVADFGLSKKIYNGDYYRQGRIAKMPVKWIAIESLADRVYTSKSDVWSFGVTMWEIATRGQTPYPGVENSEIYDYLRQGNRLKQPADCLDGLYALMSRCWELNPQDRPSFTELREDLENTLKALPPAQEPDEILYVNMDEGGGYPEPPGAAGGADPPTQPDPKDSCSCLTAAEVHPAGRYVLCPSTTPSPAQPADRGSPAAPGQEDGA

Tyro3 = biological target: T3, Tyro3 (Homo sapiens, UniProt Q06418); experiment: Tyro3 kinase inhibition IC50; details: Example 6; read-out: Tyro IC50
T3 sequence (Q06418 41-890): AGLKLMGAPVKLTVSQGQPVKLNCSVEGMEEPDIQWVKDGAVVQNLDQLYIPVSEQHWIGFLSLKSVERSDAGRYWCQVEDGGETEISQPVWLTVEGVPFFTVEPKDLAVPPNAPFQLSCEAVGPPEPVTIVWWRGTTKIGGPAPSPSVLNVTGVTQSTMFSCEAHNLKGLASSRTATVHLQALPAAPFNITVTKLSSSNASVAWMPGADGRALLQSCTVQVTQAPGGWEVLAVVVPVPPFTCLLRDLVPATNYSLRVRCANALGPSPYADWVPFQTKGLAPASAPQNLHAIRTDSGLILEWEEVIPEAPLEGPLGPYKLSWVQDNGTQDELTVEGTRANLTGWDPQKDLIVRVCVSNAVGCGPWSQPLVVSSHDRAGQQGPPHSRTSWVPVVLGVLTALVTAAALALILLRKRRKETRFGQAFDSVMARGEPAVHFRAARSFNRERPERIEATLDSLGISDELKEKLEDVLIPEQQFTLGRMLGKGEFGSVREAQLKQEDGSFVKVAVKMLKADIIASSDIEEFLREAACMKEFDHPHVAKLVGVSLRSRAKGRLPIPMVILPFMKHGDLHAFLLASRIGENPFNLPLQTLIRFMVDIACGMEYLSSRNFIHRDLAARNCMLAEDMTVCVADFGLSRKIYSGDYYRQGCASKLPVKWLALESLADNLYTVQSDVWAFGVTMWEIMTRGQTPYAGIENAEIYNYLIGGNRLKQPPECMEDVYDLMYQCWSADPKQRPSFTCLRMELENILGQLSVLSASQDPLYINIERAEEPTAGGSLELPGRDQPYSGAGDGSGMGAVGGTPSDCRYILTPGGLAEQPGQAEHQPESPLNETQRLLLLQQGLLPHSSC

FLT3 = biological target: T4, FLT3 (Homo sapiens, UniProt P36888); experiment: FLT3 kinase inhibition IC50; details: Example 6
T4 sequence (P36888 27-993): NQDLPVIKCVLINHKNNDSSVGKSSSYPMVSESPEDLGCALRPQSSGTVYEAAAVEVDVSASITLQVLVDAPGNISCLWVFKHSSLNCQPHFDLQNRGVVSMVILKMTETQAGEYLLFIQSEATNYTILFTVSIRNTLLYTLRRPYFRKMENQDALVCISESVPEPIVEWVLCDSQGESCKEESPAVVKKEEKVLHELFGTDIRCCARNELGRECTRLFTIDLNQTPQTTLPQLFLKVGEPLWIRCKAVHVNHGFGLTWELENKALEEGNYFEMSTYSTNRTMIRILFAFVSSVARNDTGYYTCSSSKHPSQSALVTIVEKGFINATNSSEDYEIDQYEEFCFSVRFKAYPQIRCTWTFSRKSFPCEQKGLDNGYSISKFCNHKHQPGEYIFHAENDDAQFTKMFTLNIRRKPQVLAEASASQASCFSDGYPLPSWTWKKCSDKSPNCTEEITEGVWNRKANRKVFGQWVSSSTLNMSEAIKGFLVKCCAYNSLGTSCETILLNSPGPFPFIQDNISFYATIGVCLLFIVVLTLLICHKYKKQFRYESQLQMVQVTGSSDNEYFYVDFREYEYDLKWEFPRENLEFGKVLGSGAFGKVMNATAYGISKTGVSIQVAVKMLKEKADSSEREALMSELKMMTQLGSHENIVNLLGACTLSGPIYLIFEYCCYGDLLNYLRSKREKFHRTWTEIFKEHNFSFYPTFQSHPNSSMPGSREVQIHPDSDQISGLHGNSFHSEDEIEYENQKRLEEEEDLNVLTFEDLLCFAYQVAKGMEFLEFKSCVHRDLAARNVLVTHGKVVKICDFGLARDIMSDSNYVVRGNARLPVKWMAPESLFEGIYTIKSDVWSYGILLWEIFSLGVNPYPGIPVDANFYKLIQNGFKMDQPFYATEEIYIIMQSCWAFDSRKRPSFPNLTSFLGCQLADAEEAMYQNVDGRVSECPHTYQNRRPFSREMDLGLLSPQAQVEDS

IC50 (Mer): 0.55 µM | IC50 (Axl): 7 µM | IC50 (Tyro3): 15 µM | IC50 (FLT3): 0.22 µM
Compound: CCCCN(C)c1ncc2c(-c3ccc(F)cc3)nn(C[C@H]3CC[C@H](N)CC3)c2n1 [UNC1653, reference compound]
